Experimental data taken from patent US8927550B2, “Heterocyclic compounds as CCR1 receptor antagonists” (Boehringer Ingelheim International GmbH, priority 2009, dated 2015).

Biological target: T1, CCR1 (Homo sapiens, UniProt P32246)
T1 construct: host or cells: Non-adherent cells
T1 sequence (P32246 1-355): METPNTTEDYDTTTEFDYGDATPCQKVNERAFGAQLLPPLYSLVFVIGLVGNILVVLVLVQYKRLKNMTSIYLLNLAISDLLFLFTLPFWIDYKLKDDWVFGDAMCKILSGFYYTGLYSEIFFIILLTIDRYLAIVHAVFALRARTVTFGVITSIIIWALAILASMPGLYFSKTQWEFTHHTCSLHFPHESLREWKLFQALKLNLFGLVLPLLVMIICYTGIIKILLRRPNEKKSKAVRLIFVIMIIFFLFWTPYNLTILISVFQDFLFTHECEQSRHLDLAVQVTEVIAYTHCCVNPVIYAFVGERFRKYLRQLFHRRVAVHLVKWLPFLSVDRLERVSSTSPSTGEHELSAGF
Test: Calcium flux in CCR1 transfected cells, Method B (Calcium 4 dye, HAMAMATSU FDSS6000), MIP-1alpha at EC80
Assay type: cell-based
Conditions: cells stably expressing recombinant CCR1 and G-alpha-16, 30 minutes at 37 C then 30 minutes at room temperature
Procedure: Compounds are assessed for the ability to block the interaction of CCR1 and MIP-1α in a functional cellular assay measuring calcium flux in CCR1 transfected cells.
Method B: Non-adherent cells purchased from Chemicon Corporation (HTS005C), stably expressing recombinant CCR1 and G-alpha-16 are grown in RPMI 1640 medium (Mediatech 10-080-CM) supplemented with 10% FBS, 0.4 mg/mL Geneticin and penicillin/streptomycin. On the day of the assay, the cells are loaded with Calcium 4 dye (Molecular Devices R7448) with Probenecid (Invitrogen P346400) at 8E5 cells/mL for 1 hour at room temperature. After 1 hour, they are seeded in a 384-well tissue culture-treated plate at a density of 20,000 cells/well. Appropriately diluted test compound is added to the well to achieve a top concentration of 3,000 nM (diluted 4-fold with 10 doses total). The final concentration of DMSO is 1%. The buffer is HBSS (Invitrogen 14025) with 20 mM HEPES at pH 7.4. The cells incubate 30 minutes at 37 C and then 30 minutes at room temperature. The plates are transferred to the HAMAMATSU FDSS6000 where MIP-1alpha in 1% BSA is added at the EC80 final concentration. All plates must be read within 4 hours of the start of dye-loading. Wells+/−MIP-1alpha containing diluted DMSO instead of compound serve as the controls. Data are analyzed using Activity Base software.

Structure (SMILES) | IC50 [µM]
CC[C@H](NC(=O)c1cccn2c(-c3ccc(F)cc3)ncc12)c1ccc(S(C)(=O)=O)nc1 [3-(4-Fluorophenyl)-imidazo[1,5-a]pyridine-8-carboxylic acid [(S)-1-(6-methanesulfonyl-pyridin-3-yl)-propyl]-amide] | 0.017
CC[C@H](NC(=O)c1cncc2c1ccn2-c1ccc(F)cc1)c1cnc(S(C)(=O)=O)s1 [1-(4-Fluorophenyl)-1H-pyrrolo[2,3-c]pyridine-4-carboxylic acid [(S)-1-(2-methanesulfonyl-thiazol-5-yl)-propyl]-amide] | 0.023
CS(=O)(=O)c1cc(CNC(=O)c2nccn3c(-c4ccc(F)cc4)ncc23)ccn1 [3-(4-Fluorophenyl)-imidazo[1,5-a]pyrazine-8-carboxylic acid (2-methanesulfonyl-pyridin-4-ylmethyl)-amide] | 0.6
CS(=O)(=O)c1cccc(CNC(=O)c2cncc3c2ccn3-c2ccc(F)cc2)c1 [1-(4-Fluorophenyl)-1H-pyrrolo[2,3-c]pyridine-4-carboxylic acid 3-methanesulfonyl-benzylamide] | 0.565
C[C@H](NC(=O)c1nncc2c1cnn2-c1ccc(F)cc1)c1ccnc(S(C)(=O)=O)c1 [1-(4-Fluorophenyl)-1H-pyrazolo[3,4-d]pyridazine-4-carboxylic acid [(S)-1-(2-methanesulfonyl-pyridin-4-yl)-ethyl]-amide] | 0.057
CC(C)(NC(=O)c1nccn2c(-c3ccc(F)cc3)ncc12)c1ccnc(Br)c1 [3-(4-Fluorophenyl)-imidazo[1,5-a]pyrazine-8-carboxylic acid [1-(2-bromopyridin-4-yl)-1-methyl-ethyl]-amide] | 1.1
CC[C@H](NC(=O)c1cccn2c(-c3ccc(F)cc3)cnc12)c1ccc(Br)nc1 [3-(4-Fluorophenyl)-imidazo[1,2-a]pyridine-8-carboxylic acid [(S)-1-(6-bromopyridin-3-yl)-propyl]-amide] | 1.34
CS(=O)(=O)c1cc(C2(NC(=O)c3nccn4c(-c5ccc(F)cc5)ncc34)CC2)ccn1 [3-(4-Fluorophenyl)-imidazo[1,5-a]pyrazine-8-carboxylic acid [1-(2-methanesulfonyl-pyridin-4-yl)-cyclopropyl]-amide] | 0.41
CC[C@H](NC(=O)c1nncc2c1cnn2-c1ccc(F)cc1)c1ccc(S(C)(=O)=O)nc1 [1-(4-Fluorophenyl)-1H-pyrazolo[3,4-d]pyridazine-4-carboxylic acid [(S)-1-(6-methanesulfonyl-pyridin-3-yl)-propyl]-amide] | 0.044
CC[C@H](NC(=O)c1cncc2c1ccn2-c1ccc(F)cc1)c1cncc(S(C)(=O)=O)c1 [1-(4-Fluorophenyl)-1H-pyrrolo[2,3-c]pyridine-4-carboxylic acid [(S)-1-(5-methanesulfonyl-pyridin-3-yl)-propyl]-amide] | 0.002
CS(=O)(=O)c1cc(C2(NC(=O)c3cc(C#N)cc4c3ccn4-c3ccc(F)cc3)CC2)ccn1 [6-Cyano-1-(4-fluorophenyl)-1H-indole-4-carboxylic acid [1-(2-methanesulfonyl-pyridin-4-yl)-cyclopropyl]-amide] | 0.0008
CN1CCC(NS(=O)(=O)c2ccc(CNC(=O)c3cc(C#N)cc4c3ccn4-c3ccc(F)cc3)cc2)CC1 [6-Cyano-1-(4-fluorophenyl)-1H-indole-4-carboxylic acid 4-(1-methyl-piperidin-4-ylsulfamoyl)-benzylamide] | 0.018
CS(=O)(=O)c1cccc(CNC(=O)c2cc(C#N)cc3c2ccn3-c2ccc(F)cc2)c1 [6-Cyano-1-(4-fluorophenyl)-1H-indole-4-carboxylic acid 3-methanesulfonyl-benzylamide] | 0.002
CNS(=O)(=O)c1ccc(CNC(=O)c2cc(O)cc3c2ccn3-c2ccc(F)cc2)cc1 [1-(4-Fluorophenyl)-6-hydroxy-1H-indole-4-carboxylic acid 4-methylsulfamoyl-benzylamide] | 1.4
CS(=O)(=O)c1ccc(CNC(=O)c2cc(C#N)cc3c2ccn3-c2ccc(F)cc2)cn1 [6-Cyano-1-(4-fluorophenyl)-1H-indole-4-carboxylic acid (6-methanesulfonyl-pyridin-3-ylmethyl)-amide] | 0.004
CCC[C@H](NC(=O)c1nccn2c(-c3ccc(F)cc3)ncc12)c1cncc(S(C)(=O)=O)c1 [3-(4-Fluorophenyl)-imidazo[1,5-a]pyrazine-8-carboxylic acid [(S)-1-(5-methanesulfonyl-pyridin-3-yl)-butyl]-amide] | 0.006

Structure (SMILES) | IC50 [µM]
CC[C@H](NC(=O)c1cncc2c1ccn2-c1ccc(F)cc1)c1ccnc(S(C)(=O)=O)c1 [1-(4-Fluorophenyl)-1H-pyrrolo[2,3-c]pyridine-4-carboxylic acid [(S)-1-(2-methanesulfonyl-pyridin-4-yl)-propyl]-amide] | 0.002
CC[C@H](NC(=O)c1nncc2c1cnn2-c1ccc(F)cc1)c1ccnc(S(C)(=O)=O)c1 [1-(4-Fluorophenyl)-1H-pyrazolo[3,4-d]pyridazine-4-carboxylic acid [(S)-1-(2-methanesulfonyl-pyridin-4-yl)-propyl]-amide] | 0.003
CCC[C@H](NC(=O)c1nccn2c(-c3ccc(F)cc3)ncc12)c1ccnc(S(C)(=O)=O)c1 [3-(4-Fluorophenyl)-imidazo[1,5-a]pyrazine-8-carboxylic acid [(S)-1-(2-methanesulfonyl-pyridin-4-yl)-butyl]-amide] | 0.005
CC[C@H](NC(=O)c1nccn2c(-c3ccc(F)cc3)ncc12)c1ccnc(S(C)(=O)=O)c1 [3-(4-Fluorophenyl)-imidazo[1,5-a]pyrazine-8-carboxylic acid [(S)-1-(2-methanesulfonyl-pyridin-4-yl)-propyl]-amide] | 0.03
CC[C@H](NC(=O)c1cccn2c(-c3ccc(F)cc3)ncc12)c1ccnc(S(C)(=O)=O)c1 [3-(4-Fluorophenyl)-imidazo[1,5-a]pyridine-8-carboxylic acid [(S)-1-(2-methanesulfonyl-pyridin-4-yl)-propyl]-amide] | 0.002
CC[C@H](NC(=O)c1cc(S(C)(=O)=O)cc2c1ccn2-c1ccc(F)cc1)c1ccc(S(C)(=O)=O)nc1 [1-(4-Fluorophenyl)-6-methanesulfonyl-1H-indole-4-carboxylic acid [(S)-1-(6-methanesulfonyl-pyridin-3-yl)-propyl]-amide] | 0.26
CCC[C@H](NC(=O)c1cccn2c(-c3ccc(F)cc3)cnc12)c1ccc(Br)nc1 [3-(4-Fluorophenyl)-imidazo[1,2-a]pyridine-8-carboxylic acid [(S)-1-(6-bromopyridin-3-yl)-butyl]-amide] | 1.1
CS(=O)(=O)c1cc(CNC(=O)c2cncc3c2ccn3-c2ccc(F)cc2)ccn1 [1-(4-Fluorophenyl)-1H-pyrrolo[2,3-c]pyridine-4-carboxylic acid (2-methanesulfonyl-pyridin-4-ylmethyl)-amide] | 0.455
CC[C@H](NC(=O)c1cccc2c(-c3ccc(F)cc3)ncn12)c1ccc(Br)nc1 [1-(4-Fluorophenyl)-imidazo[1,5-a]pyridine-5-carboxylic acid [(S)-1-(6-bromopyridin-3-yl)-propyl]-amide] | 0.096
C[C@H](NC(=O)c1cncc2c1ccn2-c1ccc(F)cc1)c1ccnc(S(C)(=O)=O)c1 [1-(4-Fluorophenyl)-1H-pyrrolo[2,3-c]pyridine-4-carboxylic acid [(S)-1-(2-methanesulfonyl-pyridin-4-yl)-ethyl]-amide] | 0.045
CC[C@H](NC(=O)c1cncc2c1ccn2-c1ccc(F)cc1)c1ccc(S(C)(=O)=O)nc1 [1-(4-Fluorophenyl)-1H-pyrrolo[2,3-c]pyridine-4-carboxylic acid [(S)-1-(6-methanesulfonyl-pyridin-3-yl)-propyl]-amide] | 0.021
CC[C@H](NC(=O)c1cccn2c(-c3ccc(F)cc3)ncc12)c1ccc(Br)nc1 [3-(4-Fluorophenyl)-imidazo[1,5-a]pyridine-8-carboxylic acid [(S)-1-(6-bromopyridin-3-yl)-propyl]-amide] | 0.029
CS(=O)(=O)Nc1ccc(CNC(=O)c2cc(C#N)cc3c2ccn3-c2ccc(F)cc2)cn1 [6-Cyano-1-(4-fluorophenyl)-1H-indole-4-carboxylic acid (6-methanesulfonylamino-pyridin-3-ylmethyl)-amide] | 0.004
CC[C@H](NC(=O)c1cccc2c(-c3ccc(F)cc3)ncn12)c1ccc(S(C)(=O)=O)nc1 [1-(4-Fluorophenyl)-imidazo[1,5-a]pyridine-5-carboxylic acid [(S)-1-(6-methanesulfonyl-pyridin-3-yl)-propyl]-amide] | 0.019
CS(=O)(=O)c1cc(CNC(=O)c2nncc3c2cnn3-c2ccc(F)cc2)ccn1 [1-(4-Fluorophenyl)-1H-pyrazolo[3,4-d]pyridazine-4-carboxylic acid (2-methanesulfonyl-pyridin-4-ylmethyl)-amide] | 0.091
